Laboratory results published in ChEMBL document CHEMBL3046305, “Insecticidal and repellent action of allyl esters against Acyrthosiphon pisum (Hemiptera: Aphididae) and Tribolium castaneum (Coleoptera: Tenebrionidae)” (2013).
Converted amounts (≈) assume the structure as drawn. The source made the active and inactive calls. No cut-off for these calls is given here.

Assays:
Acyrthosiphon pisum [1] = assay: Repellent effect in Acyrthosiphon pisum (pea aphid) at 0.1 ug/cm'2; format: functional, organism-based
Tribolium castaneum [2] = assay: Insecticidal activity against Tribolium castaneum (red flour beetle) Herbst assessed as mortality treated topically at 0.24 mg/insect measured per insect after 24 hr; format: functional
Acyrthosiphon pisum [3] = assay: Insecticidal activity against Acyrthosiphon pisum (pea aphid) assessed as mortality treated topically at 30 ug/insect measured after 24 hr; format: functional
Tribolium castaneum [4] = assay: Insecticidal activity against Tribolium castaneum (red flour beetle) assessed as mortality treated topically measured per insect after 24 hr; format: functional
Acyrthosiphon pisum [5] = assay: Insecticidal activity against Acyrthosiphon pisum (pea aphid) treated artificial diet with compound assessed as mortality at 0.1 mg/ml after 1 day; format: functional, organism-based
Acyrthosiphon pisum [6] = assay: Insecticidal activity against Acyrthosiphon pisum (pea aphid) treated artificial diet with compound assessed as mortality at 0.7 mg/ml after 3 days; format: functional; conditions: 72 h
Acyrthosiphon pisum [7] = assay: Insecticidal activity against Acyrthosiphon pisum (pea aphid) treated artificial diet with compound assessed as mortality at 0.7 mg/ml after 1 day; format: functional; conditions: 24 h
Acyrthosiphon pisum [8] = assay: Insecticidal activity against Acyrthosiphon pisum (pea aphid) treated artificial diet with compound for 3 days assessed as mortality; format: functional; conditions: for LC50: Acyrthosiphon pisum, 72 h
Tribolium castaneum [9] = assay: Repellent effect in Tribolium castaneum (red flour beetle) at 0.1 ug/cm'2 measured after 8 hr; format: functional, organism-based
Tribolium castaneum [10] = assay: Repellent effect in Tribolium castaneum (red flour beetle) at 10 ug/cm'2 measured after 4 hr; format: functional
Acyrthosiphon pisum [11] = assay: Repellent effect in Acyrthosiphon pisum (pea aphid) at 10 ug/cm'2; format: functional
Tribolium castaneum [12] = assay: Insecticidal activity against Tribolium castaneum (red flour beetle) assessed as mortality at 0.25 mg/insect; format: functional
Tribolium castaneum [13] = assay: Repellent effect in Tribolium castaneum (red flour beetle) at 10 ug/cm'2 measured after 24 hr; format: functional

Compound	Activity (Acyrthosiphon pisum [1])	mortality (Tribolium castaneum [2]) [%]	mortality (Acyrthosiphon pisum [3])	LC50 (Tribolium castaneum [4]) [mg]	LC90 (Tribolium castaneum [4]) [mg]	mortality (Acyrthosiphon pisum [5])	mortality at 700 µg/mL (Acyrthosiphon pisum [6]) [%]	mortality at 700 µg/mL (Acyrthosiphon pisum [7]) [%]	LC90 (Acyrthosiphon pisum [8]) [µg/mL]	LC50 (Acyrthosiphon pisum [8]) [µg/mL]	Activity (Tribolium castaneum [9])	Repellency (Tribolium castaneum [10]) [%]	Repellency (Acyrthosiphon pisum [11]) [%]	LT50 (Tribolium castaneum [12]) [h]	Activity (Tribolium castaneum [10])	Repellency (Tribolium castaneum [13]) [%]
C=CCOC(=O)CCCCCCC [ALLYL OCTANOATE]	inactive	45	inactive	0.1	0.16	inactive	–	–	–	–	–	–	–	–	–	–
C=CCOC(=O)c1ccco1 [ALLYL 2-FUROATE]	inactive	45	inactive	0.2	0.46	inactive	68	52	2900 (≈ 19100 µM)	210 (≈ 1380 µM)	–	–	–	–	–	–
C=CCOC(=O)/C=C/c1ccccc1 [ALLYL CINNAMATE]	–	45	75%	0.2	0.28	inactive	100	86	180 (≈ 956 µM)	30 (≈ 159 µM)	Active	80	34	<2	–	–
C=CCOC(=O)CCCCC [ALLYL HEXANOATE]	inactive	45	inactive	–	0.3	inactive	–	–	–	–	–	–	–	–	inactive	–
C=CCOC(=O)CCCCCC [ALLYL HEPTANOATE]	inactive	45	inactive	–	0.32	inactive	72	53	1160 (≈ 6810 µM)	–	–	–	–	<2	–	–
CCN(CC)C(=O)c1cccc(C)c1 [DIETHYLTOLUAMIDE]	–	–	–	–	–	–	–	–	–	–	–	60	50	–	–	84
